Data: PubChem BioAssay (NCI)
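Test compounds were applied to cells in 96-well plates for 48 hours at 5 doses. TGI marks complete inhibition of growth.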

Experiments:
Assay in all cases: inhibition of tumour cell growth, NCI panel, 48 h
OVCAR-5 ovarian = test system: OVCAR-5 ovarian
SF-539 CNS = test system: SF-539 CNS
UACC-257 melanoma = test system: UACC-257 melanoma
OVCAR-3 ovarian = test system: OVCAR-3 ovarian
MALME-3M melanoma = test system: MALME-3M melanoma
RXF 393 renal = test system: RXF 393 renal
NCI-H460 lung = test system: NCI-H460 lung
NCI-H226 lung = test system: NCI-H226 lung
TK-10 renal = test system: TK-10 renal
OVCAR-4 ovarian = test system: OVCAR-4 ovarian
NCI-H522 lung = test system: NCI-H522 lung
A549 NSCLC = test system: A549 NSCLC
A498 renal = test system: A498 renal
SR leukemia = test system: SR leukemia
HCT-15 colon = test system: HCT-15 colon
COLO 205 colon = test system: COLO 205 colon
HOP-62 NSCLC = test system: HOP-62 NSCLC
SN12C renal = test system: SN12C renal

SMILES	TGI (OVCAR-5 ovarian) [µM]	TGI (SF-539 CNS) [µM]	TGI (UACC-257 melanoma) [µM]	TGI (OVCAR-3 ovarian) [µM]	TGI (MALME-3M melanoma) [µM]	TGI (RXF 393 renal) [µM]	TGI (NCI-H460 lung) [µM]	TGI (NCI-H226 lung) [µM]	TGI (TK-10 renal) [µM]	TGI (OVCAR-4 ovarian) [µM]	TGI (NCI-H522 lung) [µM]	TGI (A549 NSCLC) [µM]	TGI (A498 renal) [µM]	TGI (SR leukemia) [µM]	TGI (HCT-15 colon) [µM]	TGI (COLO 205 colon) [µM]	TGI (HOP-62 NSCLC) [µM]	TGI (SN12C renal) [µM]
O=c1[nH]nc(Cc2ccc(Cl)cc2)n1/N=C\CC/C=N\n1c(Cc2ccc(Cl)cc2)n[nH]c1=O	> 100	40.6	> 100	> 100	> 84.7	76.1	> 100	> 71	> 100	> 100	> 100	> 100	> 100	14.8	> 100	> 100	27.5	> 100
CC#C[I+]c1ccccc1	77.8	35.1	51.7	33.9	38.2	36.9	> 100	> 100	30.4	46.3	13.1	> 100	> 100	36.5	–	26	96.6	25.6
COc1ccc(O)c(C=NCCCN=Cc2cc(OC)ccc2O)c1	> 100	–	69.5	37.3	62.7	95.2	> 100	73.2	> 100	> 100	> 100	> 100	> 100	> 100	93.1	–	> 100	83.5
CCOC(=O)NC(NC(C)CC)(C(F)(F)F)C(F)(F)F (centres undefined)	> 100	> 100	> 100	> 100	> 100	> 100	> 100	> 100	> 100	> 100	> 100	> 100	> 100	> 100	> 100	> 100	> 100	> 100
O=c1oc2ccc3ccccc3c2cc1-c1nc2ccccc2o1	> 100	29.3	99.2	32.4	26.5	34.4	> 100	> 63.6	> 100	90.4	59.4	> 55.2	> 77.5	> 85.6	> 100	> 100	> 52.1	> 64.1
O=[N+]([O-])O.[Ga]	5070	> 10000	> 10000	6920	1320	> 9480	8990	9510	> 7990	5040	4490	> 10000	2590	> 10000	5780	> 9550	1960	6890
FC(F)(Sc1ccccc1)c1nc2ccccc2o1	> 100	> 100	> 100	> 100	> 100	> 100	> 100	> 100	> 100	> 100	> 100	> 100	> 100	73.7	> 100	> 100	> 100	> 100
CC(C)NC(=O)OCc1c(COC(=O)NC(C)C)n(C)c2c1ccc1ccccc12	7.43	3.5	2.99	12.4	2.24	2.65	7.7	5.43	3.04	9.19	0.298	23.5	3.01	> 100	3.09	3.83	16.2	5.3
CCN(CC)CCCNc1nc2ccccc2c2[nH]c3ccc(OC)cc3c12	3.18	3.67	3.2	> 10	3.41	2.96	1.57	9.83	5.55	2.64	2.88	3.37	5.27	5.95	3.05	2.59	3	7.1
CC(C)n1c2c([n+](C)c1/C=C/c1ccccc1)C(=O)c1ccccc1C2=O	1.28	0.363	0.123	0.0289	0.248	2.19	2.43	2.2	2.39	1	0.15	4.68	2.76	> 21	23.9	0.0993	1.61	0.169
CCOC(=O)CCC(NC(=O)c1ccc(OCc2nc3ccccc3n3cccc23)cc1)C(=O)OCC (centres undefined)	> 100	> 100	> 100	> 100	> 100	> 100	> 100	> 100	> 100	> 100	69.3	> 100	> 100	> 100	> 100	> 100	> 100	> 100
COc1ccc(N2C(=O)C3c4[nH]c5cccc(C)c5c4C4CCC(C(C)(C)C)CC4C3C2=O)cc1 (centres undefined)	> 10	> 10	–	> 10	> 10	> 10	> 10	> 10	> 10	2.26	> 10	> 10	> 10	> 10	> 10	> 10	> 10	> 10
CCOP(=O)(OCC)/C(C#N)=C/c1cccn1CC(C)C	> 100	> 100	> 100	> 100	> 100	> 100	> 100	> 100	> 100	–	> 100	> 100	> 100	> 100	> 100	> 100	> 100	> 100
